Experimental data published in US5438052A, “Cephalosporin derivatives” (Hoffmann-La Roche Inc., priority 1991, dated 1995).
≈ marks a conversion by molar mass, not a printed value. Where a name gives a salt, the structure may show the parent alone. Read-outs that look alike come from different tables or passages of the source.

What was measured:
S. aureus 6538 = test: Minimum inhibitory concentration in vitro, agar dilution method; type: cell-based; conditions: Staphylococcus aureus
Excerpt: (§1) 1. Minimum Inhibitory Concentration in vitro
(§2) The activities ascertained, minimum inhibitory concentration (MIC) in μg/ml, are compiled in Table 1 hereinafter: […]

S. marcescens 69438 = test: as above; type: cell-based; conditions: Serratia marcescens
Excerpt: as §1, §2

E. coli 25922 [1] = test: as above; type: cell-based; conditions: Escherichia coli
Excerpt: as §1, §2

P. mirabilis 2117 = test: as above; type: cell-based; conditions: Proteus mirabilis
Excerpt: as §1, §2

P. aeruginosa 799/WT = test: as above; type: cell-based; conditions: Pseudomonas aeruginosa
Excerpt: as §1, §2

P. aeruginosa MK1184 = test: as above; type: cell-based; conditions: Pseudomonas aeruginosa
Excerpt: as §1, §2

P. aeruginosa 27853 = test: as above; type: cell-based; conditions: Pseudomonas aeruginosa
Excerpt: as §1, §2

S. pneumoniae BA = test: as above; type: cell-based; conditions: Streptococcus pneumoniae
Excerpt: as §1, §2

P. aeruginosa 799/61 = test: as above; type: cell-based; conditions: Pseudomonas aeruginosa
Excerpt: as §1, §2

S. pyogenes 15 = test: as above; type: cell-based; conditions: Streptococcus pyogenes
Excerpt: as §1, §2

E. cloacae 908R = test: as above; type: cell-based; conditions: Enterobacter cloacae
Excerpt: as §1, §2

C. freundii 902 = test: as above; type: cell-based; conditions: Citrobacter freundii
Excerpt: as §1, §2

E. cloacae P99 = test: as above; type: cell-based; conditions: Enterobacter cloacae
Excerpt: as §1, §2

E. cloacae 908SSi = test: as above; type: cell-based; conditions: Enterobacter cloacae
Excerpt: as §1, §2

K. pneumoniae 418 = test: as above; type: cell-based; conditions: Klebsiella pneumoniae
Excerpt: as §1, §2

P. vulgaris 1028 = test: as above; type: cell-based; conditions: Proteus vulgaris
Excerpt: as §1, §2

P. aeruginosa BA = test: as above; type: cell-based; conditions: Pseudomonas aeruginosa
Excerpt: as §1, §2

K. oxytoca 1082 = test: as above; type: cell-based; conditions: Klebsiella oxytoca
Excerpt: as §1, §2

E. coli 25922 [2] = test: Experimental systemic septicaemia in the mouse; type: in vivo; conditions: 96 h
Protocol: (§3) 2. Experimental systemic septicaemia in the mouse
(§4) An experimental systemic septicaemia was produced in albino mice weighing 16-20 g by intraperitoneally injecting into the experimental animals a sample of a dilute culture of the test organism which had been grown overnight. The sample administered is calculated such that the dosage administered is about 5-100 times greater than the dosage which is required to kill 50% of untreated experimental animals within 48 hours. The bacteria were injected as a suspension in the culture broth. Groups of 5 experimental animals each were used not only for the control, but also for the treatment for each dosage tested. The products in accordance with the invention were administered subcutaneously as a suspension in Tween 80 (2%), whereby the concentrations were chosen such that each experimental animal received 500 μl per administration. The respective concentrations were administered twice, namely 1 and 3 hours after the infection (in the case of P. aeruginosa three times, namely 1, 3 and 5 hours after the infection). The ED50 is that dosage which protects 50% of the experimental animals and was calculated by means of the Probit method on the basis of the survial rate after 4 days following the infection. The ED50 values in mg/kg s.c. (subcutaneous) for representatives of the class of substance in accordance with the invention are given in Table 2 hereinafter.

[3] = tested on: Pseudomonas aeruginosa BA; test: Experimental systemic septicaemia in the mouse; type: in vivo; conditions: sc, 96 h
Protocol: as §3, §4

E. aerogenes CF153 = test: Minimum inhibitory concentration in vitro, agar dilution method; type: cell-based; conditions: Klebsiella aerogenes; E. aerogenes CF153, agar dilution; read-out: MIC
Excerpt: as §1, §2

[4] = S. aureus 6538, agar dilution, read-out: MIC
[5] = S. marcescens 69438, agar dilution, read-out: MIC
[6] = E. coli 25922, agar dilution, read-out: MIC
[7] = P. mirabilis 2117, agar dilution, read-out: MIC
[8] = P. aeruginosa 799/WT, agar dilution, read-out: MIC
[9] = P. aeruginosa MK1184, agar dilution, read-out: MIC
[10] = P. aeruginosa 27853, agar dilution, read-out: MIC
[11] = P. aeruginosa 799/61, agar dilution, read-out: MIC
[12] = S. pyogenes 15, agar dilution, read-out: MIC
[13] = E. cloacae 908R, agar dilution, read-out: MIC
[14] = C. freundii 902, agar dilution, read-out: MIC
[15] = E. cloacae 908SSi, agar dilution, read-out: MIC
[16] = K. pneumoniae 418, agar dilution, read-out: MIC
[17] = P. vulgaris 1028, agar dilution, read-out: MIC
[18] = P. aeruginosa BA, agar dilution, read-out: MIC
[19] = K. oxytoca 1082, agar dilution, read-out: MIC
[20] = S. pneumoniae BA, agar dilution, read-out: MIC
[21] = Escherichia coli, sc, E. coli 25922, albino mice, s.c. 1 and 3 hours after infection, survival after 4 days, read-out: ED50
[22] = P. aeruginosa BA, albino mice, s.c. 1, 3 and 5 hours after infection, survival after 4 days, read-out: ED50

Structure (SMILES) | MIC (S. aureus 6538; 6538) [µg/mL] | MIC (S. marcescens 69438; 69438) [µg/mL] | MIC (E. coli 25922 [1]; 25922) [µg/mL] | MIC (E. cloacae P99) [µg/mL] | MIC (S. aureus 6538; [4]) [µg/mL] | MIC (S. marcescens 69438; [5]) [µg/mL] | MIC (E. coli 25922 [1]; [6]) [µg/mL] | MIC (P. mirabilis 2117; [7]) [µg/mL] | MIC (P. aeruginosa 799/WT; [8]) [µg/mL] | MIC (P. aeruginosa MK1184; [9]) [µg/mL] | MIC (P. aeruginosa 27853; [10]) [µg/mL] | MIC (P. aeruginosa 799/61; [11]) [µg/mL] | MIC (S. pyogenes 15; [12]) [µg/mL] | MIC (E. cloacae 908R; [13]) [µg/mL] | MIC (C. freundii 902; [14]) [µg/mL] | MIC (E. cloacae 908SSi; [15]) [µg/mL] | MIC (K. pneumoniae 418; [16]) [µg/mL] | MIC (P. vulgaris 1028; [17]) [µg/mL] | MIC (P. aeruginosa BA; [18]) [µg/mL] | MIC (K. oxytoca 1082; [19]) [µg/mL] | also measured
Cc1cc(SCC2=C(C(=O)[O-])N3C(=O)[C@@H](NC(=O)/C(=N\OCS(=O)(=O)c4ccc(O)c(O)c4)c4csc(N)n4)[C@H]3SC2)n2nc(CNS(=O)(=O)c3ccc(O)c(O)c3)nc2n1.[Na+] [Example 3, (6R,7R)-7-[(Z)-2-(2-amino-4-thiazolyl)-2-[[[(3,4-dihydroxyphenyl)sulphonyl]methoxy]imino]acetamido]-3-[[[2-[(3,4-dihydroxybenzenesulphonamido)methyl]-5-methyl-s-triazolo[1,5-a]pyrimidin-7-yl]thio]methyl]-8-oxo-5-thia-1-azabicyclo[4.2.0]oct-2-ene-2-carboxylic acid sodium salt (1:1)] | 32 | 0.12 | < 0.1 | 0.5 |  |  |  |  |  |  |  |  |  |  |  |  |  |  |  |  | MIC (P. mirabilis 2117; 2117): < 0.1 µg/mL; MIC (P. aeruginosa 799/WT; 799/WT): 0.12 µg/mL; MIC (P. aeruginosa MK1184; MK1184): < 0.1 µg/mL; MIC (P. aeruginosa 27853; 27853): 0.25 µg/mL; MIC (S. pneumoniae BA): 2 µg/mL; MIC (P. aeruginosa 799/61; 799/61): < 0.1 µg/mL; MIC (S. pyogenes 15; 15): 4 µg/mL; MIC (E. cloacae 908R; 908R): 1 µg/mL; MIC (C. freundii 902; 902): 0.12 µg/mL; MIC (E. cloacae 908SSi; 908SSI): 8 µg/mL; MIC (K. pneumoniae 418; 418): < 0.1 µg/mL; MIC (P. vulgaris 1028; 1028): < 0.1 µg/mL; MIC (P. aeruginosa BA): < 0.1 µg/mL; MIC (K. oxytoca 1082; 1082): 0.25 µg/mL; ED50 (E. coli 25922 [2]; Escherichia coli, 25922, sc): 0.1 mg/kg; ED50 [3]: 0.04 mg/kg
CC(C)(O/N=C(\C(=O)N[C@@H]1C(=O)N2C(C(=O)O)=C(CSc3nc(-c4ccccc4)ncc3-c3ccc(O)c(O)c3)CS[C@H]12)c1csc(N)n1)C(=O)NO [Example 17, (6R,7R)-7-[(Z)-2-(2-amino-4-thiazolyl)-2-[[1-(hydroxycarbamoyl)-1-methylethoxy]imino]acetamido]-3-[[[5-(3,4-dihydroxyphenyl)-2-phenyl-4-pyrimidinyl]thio]methyl]-8-oxo-5-thia-1-azabicyclo[4.2.0]oct-2-ene-2-carboxylic acid] |  |  |  | 16 (≈ 20.5 µM) | > 32 | 0.5 (≈ 0.642 µM) | < 0.1 | 0.5 (≈ 0.642 µM) | 2 (≈ 2.57 µM) | 8 (≈ 10.3 µM) | 1 (≈ 1.28 µM) | < 0.1 | 0.12 (≈ 0.154 µM) | 1 (≈ 1.28 µM) | 0.5 (≈ 0.642 µM) | 8 (≈ 10.3 µM) | 0.25 (≈ 0.321 µM) | 0.25 (≈ 0.321 µM) | 2 (≈ 2.57 µM) | 2 (≈ 2.57 µM) | MIC (E. aerogenes CF153): 0.25 µg/mL (≈ 0.321 µM)
CC(C)(O/N=C(\C(=O)N[C@@H]1C(=O)N2C(C(=O)O)=C(CSc3ncncc3-c3ccc(O)c(O)c3)CS[C@H]12)c1csc(N)n1)C(=O)NO [Example 19a, (6R,7R)-7-[(Z)-2-(2-amino-4-thiazolyl)-2-[[1-(hydroxycarbamoyl)-1-methylethoxy]imino]acetamido]-3-[[[5-(3,4-dihydroxyphenyl)-4-pyrimidinyl]thio]methyl]-8-oxo-5-thia-1-azabicyclo[4.2.0]oct-2-ene-2-carboxylic acid] |  |  |  | 16 (≈ 22.8 µM) | 16 (≈ 22.8 µM) | 0.12 (≈ 0.171 µM) | < 0.1 | 0.25 (≈ 0.356 µM) | 0.25 (≈ 0.356 µM) | 16 (≈ 22.8 µM) | 2 (≈ 2.85 µM) | < 0.1 | 0.5 (≈ 0.711 µM) | 16 (≈ 22.8 µM) | 0.25 (≈ 0.356 µM) | 2 (≈ 2.85 µM) | < 0.1 | 0.12 (≈ 0.171 µM) | 1 (≈ 1.42 µM) | 1 (≈ 1.42 µM) | MIC (E. aerogenes CF153): 0.12 µg/mL (≈ 0.171 µM)
Cc1cc(SCC2=C(C(=O)[O-])N3C(=O)[C@@H](NC(=O)/C(=N\OCS(=O)(=O)c4ccc(O)c(O)c4)c4csc(N)n4)[C@H]3SC2)n2nc(COC(=O)c3ccc(O)c(O)c3)nc2n1.[Na+] [Example 7, (6R,7R)-7-[(Z)-2-(2-amino-4-thiazolyl)-2-[[[(3,4-dihydroxyphenyl)sulphonyl]methoxy]imino]acetamido]-3-[[[2-[[(3,4-dihydroxybenzoyl)oxy]methyl]-5-methyl-s-triazolo[1,5-a]pyrimidin-7-yl]thio]methyl]-8-oxo-5-thia-1-azabicyclo[4.2.0]oct-2-ene-2-carboxylic acid sodium salt (1:1)] | 32 | 0.12 | < 0.1 | 1 |  |  |  |  |  |  |  |  |  |  |  |  |  |  |  |  | MIC (P. mirabilis 2117; 2117): 0.12 µg/mL; MIC (P. aeruginosa 799/WT; 799/WT): 0.5 µg/mL; MIC (P. aeruginosa MK1184; MK1184): < 0.1 µg/mL; MIC (P. aeruginosa 27853; 27853): 1 µg/mL; MIC (S. pneumoniae BA): 2 µg/mL; MIC (P. aeruginosa 799/61; 799/61): 0.25 µg/mL; MIC (S. pyogenes 15; 15): 4 µg/mL; MIC (E. cloacae 908R; 908R): 2 µg/mL; MIC (C. freundii 902; 902): 0.12 µg/mL; MIC (E. cloacae 908SSi; 908SSI): 4 µg/mL; MIC (K. pneumoniae 418; 418): < 0.1 µg/mL; MIC (P. vulgaris 1028; 1028): 0.12 µg/mL; MIC (P. aeruginosa BA): 0.12 µg/mL; MIC (K. oxytoca 1082; 1082): < 0.1 µg/mL; ED50 (E. coli 25922 [2]; Escherichia coli, 25922, sc): < 0.3 mg/kg; ED50 [3]: 0.08 mg/kg
Nc1nc(/C(=N/OCS(=O)(=O)c2ccc(O)c(O)c2)C(=O)N[C@@H]2C(=O)N3C(C(=O)O)=C(CS(=O)(=O)c4ccc(O)c(O)c4)CS[C@H]23)cs1 [Example 22, (6R,7R)-7-[(Z)-2-(2-amino-4-thiazolyl)-2-[[(3,4-dihydroxysulphonyl)methoxy]imino]acetamido]-3-[[(3,4-dihydroxyphenyl)sulphonyl]methyl]-8-oxo-5-thia-1-azabicyclo[4.2.0]oct-2-ene-2-carboxylic acid sodium salt] |  |  |  | 32 | > 32 | 16 | 8 | 16 | 16 | > 32 | 32 | 0.25 | 16 | 32 | 16 | 16 | 0.5 | 16 | > 32 | 0.5 | MIC (S. pneumoniae BA; [20]): 16 µg/mL; ED50 (E. coli 25922 [2]; [21]): < 0.05 mg/kg; ED50 [3, 22]: 1.8 mg/kg
CC(C)(O/N=C(\C(=O)N[C@@H]1C(=O)N2C(C(=O)O)=C(CS(=O)(=O)c3ccc(O)c(O)c3)CS[C@H]12)c1csc(N)n1)C(=O)NNC(=O)c1ccc(O)c(O)c1 [Example 47, (6R,7R)-7-[(Z)-2-(2-amino-4-thiazolyl)-2-[[1-[3-(3,4-dihydroxybenzoyl)carbazoyl]-1-methylethoxy]imino]acetamido]-3-[[(3,4-dihydroxyphenyl)sulphonyl]methyl]-8-oxo-5-thia-1-azabicyclo[4.2.0]oct-2-ene-2-carboxylic acid] |  |  |  | 16 (≈ 20.2 µM) | 32 (≈ 40.4 µM) | 0.25 (≈ 0.316 µM) | 0.12 (≈ 0.152 µM) | 0.12 (≈ 0.152 µM) | 4 (≈ 5.05 µM) | > 32 | 4 (≈ 5.05 µM) | 0.25 (≈ 0.316 µM) | 1 (≈ 1.26 µM) | 1 (≈ 1.26 µM) | 0.5 (≈ 0.631 µM) | 8 (≈ 10.1 µM) | < 0.1 | 0.25 (≈ 0.316 µM) | 4 (≈ 5.05 µM) | 0.25 (≈ 0.316 µM) | MIC (S. pneumoniae BA; [20]): 1 µg/mL (≈ 1.26 µM); ED50 (E. coli 25922 [2]; [21]): < 0.1 mg/kg; ED50 [3, 22]: 0.1 mg/kg
